From US11414442B2, “ARF6 inhibitors and related methods” (Navigen, Inc., priority 2017, dated 2022)
Where “and” joins values, the source holds several entries; their conditions need not be identical. Equal values may be shown once. Read-outs that look alike come from different tables or passages of the source.

Assays:
[1] = Solubility in water and PBS pH 7.4 (Tables 1 and 2); type: physicochemical
[2] = tested on: multidrug-resistant Pseudomonas aeruginosa (PA); test: Multidrug-resistant Pseudomonas aeruginosa mouse model of pneumonia; type: in vivo; settings: NAV-AAR′ 38 and 64 mg/kg subcutaneous once daily for 6 days
Method: NAV-AAR′ is also active in a multidrug-resistant Pseudomonas aeruginosa (PA) mouse model of pneumonia. […] NAV-AAR′ was administered by subcutaneous injection once daily for 6 days. The antibiotic meropenem was ineffective against MDR PA in this model.

[3] = molecular target: ARF6 (Homo sapiens, UniProt P62330); test: ARF6 inhibition, biochemical fluorometric nucleotide exchange assay
Chain of ARF6 (P62330 whole entry, species assumed): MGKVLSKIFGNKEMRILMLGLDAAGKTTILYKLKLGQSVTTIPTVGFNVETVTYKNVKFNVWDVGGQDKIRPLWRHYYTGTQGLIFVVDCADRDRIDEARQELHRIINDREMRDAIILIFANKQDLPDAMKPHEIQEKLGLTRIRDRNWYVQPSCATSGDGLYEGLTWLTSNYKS
Excerpt: These ARF6 inhibitors were discovered using a high-throughput biochemical, fluorometric nucleotide exchange assay to screen 100,000 compounds from a commercially available compound library. Medicinal chemistry optimization efforts have also been conducted. In some embodiments, the clinical potential of the discovered small molecule ARF6 inhibitors can be limited by poor solubility. Accordingly, the synthesis and development of water soluble prodrugs of ARF6 inhibitors can be advantageous. […]

[4] = Solubility of ARF6 prodrugs in various vehicles (Table 4); type: physicochemical
[5] = tested on: LPS-induced acute lung injury (ALI); test: Mouse model of LPS-induced ALI, BALF cell count and BALF protein; type: in vivo; settings: dexamethasone 5 mg/kg IP at T=0 and 6, positive control in the experiments of the compound of that line; mean ± SEM
Method: LPS was instilled into the trachea of anesthetized mice. […] The efficacy endpoints were total cell counts and total protein in BALF. All studies were conducted using vehicle negative controls and dexamethasone (5 mg/kg IP at T=0 and 6) as a positive control. Data were analyzed by 1-way ANOVA followed by Tukey's multiple comparison test (GRAPHPAD PRISM® software, version 6.05). […] Reductions in BALF total protein were also observed. […]

[6] = Table 1, water, read-out: Solubility Water
[7] = aqueous buffer, Table 1, PBS pH 7.4, read-out: Solubility PBS pH 7.4
[8] = 20 mM Na citrate buffer, pH 3.1, aqueous buffer, kinetic from dmso stock, diluted from 10 mM solution in DMSO, read-out: Solubility (μM) 20 mM Na Citrate, pH 3.1
[9] = water, kinetic from dmso stock, diluted from 10 mM solution in DMSO, read-out: Solubility (μM) H2O
[10] = Table 2, water, read-out: Solubility Water

Compound | solubility [1, 6] | solubility [1, 7] [µM] | IC50 ([3]; Table 1, read-out: ARF6 IC50) [µM] | other results
Cc1ccc(-c2cc(=O)[nH]c3c(-c4ccc(Cl)cc4)c(Cc4ccccc4)nn23)c(OP(=O)([O-])[O-])c1.[Na+].[Na+] [NAV-AAR] | > 50 mg/mL |  |  | 
C[C@@H](O)[C@H]1C(=O)N2C(C(=O)O)=C(S[C@@H]3CN[C@H](C(=O)N(C)C)C3)[C@H](C)[C@H]12 [meropenem, reference compound] |  |  |  | survival in MDR PA pneumonia [2]: ineffective
N#Cc1ccc(-c2cc(=O)[nH]c3c(-c4ccc(Cl)c(Cl)c4)c(C4CC4)nn23)c(OC(=O)[C@@H](N)CCCCN)c1 [NAV-AB] | 500 µM | < 1 | 2.4 | 
O=c1cc(-c2ccc(F)cc2O)n2nc(C(F)(F)F)c(-c3ccc(Cl)c(Cl)c3)c2[nH]1 [NAV-AW] | < 1 µM | 30 | 1.6 | 
O=c1cc(-c2ccc(F)cc2O)n2nc(C3CC3)c(-c3ccc(Cl)c(Cl)c3)c2[nH]1 [NAV-AF] | 1.1 µM | < 1 | 1.9 | 
N#Cc1ccc(-c2cc(=O)[nH]c3c(-c4ccc(Cl)cc4)c(C(F)(F)F)nn23)c(O)c1 [NAV-Q] | < 1 µM | 11 | 5.1 | 
NCC(=O)Oc1cc([N+](=O)[O-])ccc1-c1cc(=O)[nH]c2c(-c3ccc(Cl)cc3)c(Cc3ccccc3)nn12.O=C(O)C(F)(F)F [Example III, [2-[2-Benzyl-3-(4-chlorophenyl)-5-oxo-4H-pyrazolo[1,5-a]pyrimidin-7-yl]-5-nitro-phenyl] 2-aminoacetate trifluoroacetate] |  |  |  | solubility [4, 8]: 325 µM; solubility [4, 9]: 375 µM
Cc1ccc(-c2c[nH]c3c(-c4ccc(Cl)cc4)c(Cc4ccccc4)nn3c2=O)c(O)c1 [NAV-AAC′] |  |  |  | solubility [1, 10]: < 1 mg/mL; IC50 ([3]; Table 2, read-out: ARF6 IC50): 3.3 µM
O=c1cc(-c2ccc(Cl)cc2O)n2nc(C3CC3)c(-c3ccc(Cl)c(Cl)c3)c2[nH]1 [NAV-J] | < 1 µM | < 1 | 12 | 
O=c1c(-c2ccc(F)cc2OP(=O)([O-])[O-])c[nH]c2c(-c3ccc(Cl)cc3)c(Cc3ccccc3)nn12.[Na+].[Na+] [NAV-AAP′] |  |  |  | solubility [1, 10]: > 50 mg/mL; IC50 ([3]; Table 2, read-out: ARF6 IC50): 9.2 µM
Cc1ccc(-c2cc(=O)[nH]c3c(-c4ccc(Cl)cc4)c(Cc4ccccc4)nn23)c(OP(=O)(O)O)c1 [NAV-AAQ] | > 50 mg/mL |  | 4.6 | 
N#Cc1ccc(-c2cc(=O)[nH]c3c(-c4ccc(Cl)c(Cl)c4)c(C(F)(F)F)nn23)c(O)c1 [NAV-P] | 5.75 µM | 19.6 | 1.4 | 
O=c1cc(-c2ccccc2O)n2nc(C(F)(F)F)c(-c3ccc(Cl)cc3)c2[nH]1 [NAV-M] | 4 µM | 43 | 10 | 
O=c1cc(-c2ccc(F)cc2O)n2nc(C(F)(F)F)c(-c3ccc(Cl)cc3)c2[nH]1 [NAV-AY] | 4.5 µM | 70 | 6.2 | 
O=c1cc(-c2ccc([N+](=O)[O-])cc2O)n2nc(C3CC3)c(-c3ccc(Cl)c(Cl)c3)c2[nH]1 [NAV-L] | < 1 µM | 20 | 6.2 | 
O=c1cc(-c2ccc(F)cc2O)n2nc(Cc3ccccc3)c(-c3ccc(Cl)cc3)c2[nH]1 [NAV-AD] | < 1 µM | < 1 | 2.4 | 
N#Cc1ccc(-c2cc(=O)[nH]c3c(-c4ccc(Cl)cc4)c(Cc4ccccc4)nn23)c(O)c1 [NAV-R] | < 1 µM | 1.7 | 1.9 | 
NCCCC[C@H](N)C(=O)Oc1ccccc1-c1cc(=O)[nH]c2c(-c3ccc(Cl)cc3)c(Cc3ccccc3)nn12 [NAV-Y] | 438 µM | 144 | 30 | 
C[C@@H]1C[C@H]2[C@@H]3CCC4=CC(=O)C=C[C@]4(C)[C@@]3(F)[C@@H](O)C[C@]2(C)[C@@]1(O)C(=O)CO [DEX, dexamethasone, reference compound] |  |  |  | percent reduction in LPS-induced increase in BALF cell count, DEX [5]: 64 ± 9% and 74 ± 5% and 63 ± 4% and 59 ± 5% and 70 ± 7%
Cc1ccc(-c2cc(=O)[nH]c3c(-c4ccc(Cl)cc4)c(Cc4ccccc4)nn23)c(OC(=O)[C@@H](N)CCCCN)c1 [NAV-AAF] |  |  | > 50 | 

Compound | solubility [1, 6] | solubility [1, 7] [µM] | IC50 ([3]; Table 1, read-out: ARF6 IC50) [µM] | other results
NCCCC[C@H](N)C(=O)Oc1ccccc1-c1cc(=O)[nH]c2c(-c3ccc(Cl)c(Cl)c3)c(C(F)(F)F)nn12 [NAV-AG] | > 500 µM | 435 | 26 | 
O=c1cc(-c2ccc(C(F)(F)F)cc2O)n2nc(C3CC3)c(-c3ccc(Cl)c(Cl)c3)c2[nH]1 [NAV-V] | 30 µM | 6 | 3.2 | 
O=c1cc(-c2ccc(Cl)cc2O)n2nc(C(F)(F)F)c(-c3ccc(Cl)cc3)c2[nH]1 [NAV-K] | < 1 µM | 43 | 4.2 | 
C[C@H](N)C(=O)Oc1cc([N+](=O)[O-])ccc1-c1cc(=O)[nH]c2c(-c3ccc(Cl)cc3)c(Cc3ccccc3)nn12.O=C(O)C(F)(F)F [Example V, [2-[2-Benzyl-3-(4-chlorophenyl)-5-oxo-4H-pyrazolo[1,5-a]pyrimidin-7-yl]-5-nitro-phenyl] (2S)-2-aminopropanoate trifluoroacetate] |  |  |  | solubility [4, 8]: 160 µM; solubility ([4]; 0.1% Tween 80 in D5W, aqueous with cosolvent or surfactant or cyclodextrin, kinetic from dmso stock, diluted from 10 mM solution in DMSO, read-out: Solubility (μM) 0.1% Tween 80 in D5W): 5.4 µM; solubility ([4]; DPBS, pH 7.4, aqueous buffer, kinetic from dmso stock, diluted from 10 mM solution in DMSO, read-out: Solubility (μM) DPBS, pH 7.4): < 1 µM; solubility ([4]; saline or isotonic, thermodynamic from solid, D5W, prepared from powder, read-out: Solubility (μM) D5W Prepared from powder): 20 µM; solubility [4, 9]: 150 µM; IC50 ([3]; Table 4, read-out: ARF6 inhibition IC50): 1.9 µM
O=c1cc(-c2ccc(Cl)cc2O)n2nc(Cc3ccccc3)c(-c3ccc(Cl)cc3)c2[nH]1 [NAV-D] | < 1 µM | < 1 | 11 | 
NCCCC[C@H](N)C(=O)Oc1cc(F)ccc1-c1cc(=O)[nH]c2c(-c3ccc(Cl)cc3)c(Cc3ccccc3)nn12 [NAV-AAE] |  |  | 3.3 | 
O=c1cc(-c2ccccc2O)n2nc(CN3CCOCC3)c(-c3ccc(Cl)cc3)c2[nH]1 [NAV-G] | 56 µM | 82 | > 50 | 
O=c1cc(-c2ccc(C(F)(F)F)cc2O)n2nc(C(F)(F)F)c(-c3ccc(Cl)c(Cl)c3)c2[nH]1 [NAV-T] | 13 µM | 11 | 2.3 | 
O=c1cc(-c2ccc(F)cc2OP(=O)(O)O)n2nc(Cc3ccccc3)c(-c3ccc(Cl)cc3)c2[nH]1 [NAV-AAP] |  |  | 9.2 | 
O=c1cc(-c2ccc(C(F)(F)F)cc2O)n2nc(Cc3ccccc3)c(-c3ccc(Cl)cc3)c2[nH]1 [NAV-U] | 20 µM | 14 | 6.7 | 
O=c1cc(-c2ccccc2O)n2nc(C3CC3)c(-c3ccc(Cl)c(Cl)c3)c2[nH]1 [NAV-I] | 29 µM | 1.8 | 21 | 
O=c1cc(-c2ccc(Cl)cc2O)n2nc(C(F)(F)F)c(C3CCCCC3)c2[nH]1 [NAV-F] | < 1 µM | 21 | 4.9 | 
N#Cc1ccc(-c2cc(=O)[nH]c3c(-c4ccc(Cl)cc4)c(Cc4ccccc4)nn23)c(OC(=O)[C@@H](N)CCCCN)c1 [NAV-AAD] | 300 µM | < 1 | 2.9 | 
O=c1cc(-c2ccccc2O)n2nc(C(F)(F)F)c(C3CCCCC3)c2[nH]1 [NAV-E] | < 1 µM | 68 | 12 | 
O=c1cc(-c2ccccc2O)n2nc(C(F)(F)F)c(-c3ccc(Cl)c(Cl)c3)c2[nH]1 [NAV-O] | < 1 µM | 38 | 2.8 | 
O=c1cc(-c2ccccc2O)n2nc(Cc3ccccc3)c(-c3ccc(Cl)cc3)c2[nH]1 [NAV-C] | 9.2 µM | 1.4 | 7.2 | 
O=c1cc(-c2ccc(Cl)cc2O)n2nc(CN3CCOCC3)c(-c3ccc(Cl)cc3)c2[nH]1 [NAV-H] | 7 µM | 13 | 30 | 
NCCCC[C@H](N)C(=O)Oc1cc(Cl)ccc1-c1cc(=O)[nH]c2c(-c3ccc(Cl)cc3)c(C(F)(F)F)nn12 [NAV-Z] | 450 µM | 22 | 4.25 | 
N#Cc1ccc(-c2cc(=O)[nH]c3c(-c4ccc(Cl)c(Cl)c4)c(C(F)(F)F)nn23)c(OC(=O)[C@@H](N)CCCCN)c1 [NAV-AA] | > 500 µM | 19 | 1.9 | 
N#Cc1ccc(-c2cc(=O)[nH]c3c(-c4ccc(Cl)c(Cl)c4)c(C4CC4)nn23)c(O)c1 [NAV-S] | 10.2 µM | 14 | 2 | 
